Source: patent US9024041B2, “P38 MAP kinase inhibitors” (Respivert Ltd., priority 2010, dated 2015)

What was measured:
[1] = test system: LPS-induced TNFα release in d-U937 cells; assay: LPS-induced TNFα release in d-U937 cells; assay type: cell-based; conditions: Homo sapiens, dU937, 4 h; read-out: LPS/TNFα REC50 d-U937
Summary of the method: (§1)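 U937 cells differentiated with PMA (100 ng/mL, 48–72 hr), pre-incubated with compound 2 hr, then stimulated with 0.1 μg/mL E. coli O111:B4 LPS for 4 hr. Supernatant TNFα and IL-8 measured by sandwich ELISA; REC50 (TNFα) and IC50 (IL-8 inhibition vs vehicle) taken from concentration-response curves.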

[2] = test system: Poly I:C-induced ICAM-1 expression in BEAS2B cells; assay: Poly I:C-induced ICAM-1 induction in BEAS2B cells; assay type: cell-based; conditions: Homo sapiens, BEAS-2B, poly I:C 1 μg/mL, 18 hr, read-out: PolyI:C/ICAM1 IC50 BEAS2B
Summary of the method: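 Human bronchial epithelial BEAS2B cells were pre-incubated with compound for 2 h, then transfected with poly I:C at 1 μg/mL. Surface ICAM-1 was measured 18 h later by cell-based ELISA (OD450–655), normalised to crystal-violet cell number (OD595). IC50 was taken from the concentration–response curve against vehicle.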

[3] = target: T1, Recombinant, phosphorylated p38 MAPKγ (MAPK12:Invitrogen) (Homo sapiens, UniProt P53778); assay: p38 MAPKγ enzyme inhibition assay (FRET, Z-LYTE); assay type: biochemical; conditions: 2 hr pre-incubation, ATP 100 μM; read-out: Enzyme Inhibition IC50 p38γ
T1 construct: purchased Invitrogen
T1 sequence (P53778 1-367): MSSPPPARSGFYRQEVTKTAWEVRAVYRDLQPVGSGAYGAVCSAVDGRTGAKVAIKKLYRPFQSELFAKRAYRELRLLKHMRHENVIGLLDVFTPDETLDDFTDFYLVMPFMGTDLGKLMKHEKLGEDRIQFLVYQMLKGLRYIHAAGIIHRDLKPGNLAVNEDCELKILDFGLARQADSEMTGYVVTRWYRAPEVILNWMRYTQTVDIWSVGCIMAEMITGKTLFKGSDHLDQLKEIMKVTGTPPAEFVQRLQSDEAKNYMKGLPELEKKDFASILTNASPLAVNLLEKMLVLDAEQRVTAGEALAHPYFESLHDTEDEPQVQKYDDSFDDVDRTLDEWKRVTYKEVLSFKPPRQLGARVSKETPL
Procedure: The enzyme inhibitory activities of compounds disclosed herein were determined by fluorescence resonance energy transfer (FRET) using synthetic peptides labelled with both donor and acceptor fluorophores (Z-LYTE, Invitrogen Ltd., Paisley, UK). Recombinant, phosphorylated p38 MAPKγ (MAPK12:Invitrogen) was diluted in HEPES buffer, mixed with the test compound at the desired final concentrations and incubated for 2 hr at RT. The FRET peptide (2 μM) and ATP (100 μM) were added to the enzyme/compound mixture and incubated for 1 hr. Development reagent (protease) was added for 1 hr prior to detection in a fluorescence microplate reader (Varioskan® Flash, ThermoFisher Scientific). The site-specific protease cleaves non-phosphorylated peptide only and eliminates the FRET signal. Phosphorylation levels of each reaction were calculated using the ratio of coumarin emission (donor) over fluorescein emission (acceptor) for which high ratios indicate high phosphorylation and low ratios indicate low phosphorylation levels.

[4] = test system: LPS-induced IL-8 release in d-U937 cells; assay: LPS-induced IL-8 release in d-U937 cells; assay type: cell-based; conditions: Homo sapiens, dU937, 0.1 μg/mL LPS, 4 hr
Summary of the method: as §1

[5] = test system: Differentiated U937 cells; assay: MTT assay: cell viability on exposure to test compounds; assay type: cell-based, human; conditions: percentage loss of cell viability vs vehicle, 1 μg/mL; for MTT Assay (Viability) 4 h d-U937: 5% FCS; for MTT Assay (Viability) 24 h d-U937: 10% FCS
Summary of the method: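 Differentiated U937 cells were pre-incubated with compound for either 4 h in 5% FCS or 24 h in 10% FCS, then given MTT for 1 h. Formazan was dissolved in DMSO and read at 550 nm. Viability loss is expressed as % versus 0.5% DMSO vehicle, so an apparent gain appears as a negative value.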

[6] = test system: LPS-induced TNFα release in THP-1 cells; assay: LPS-induced TNFα release in THP-1 cells; assay type: cell-based; conditions: Homo sapiens, 3 μg/mL LPS, 4 hr
Summary of the method: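 Human monocytic cells were stimulated with 3 μg/mL E. coli LPS for 4 hr. Supernatant TNFα was measured by sandwich ELISA. Inhibition was taken relative to vehicle control, and IC50 derived from the concentration-response curve.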

[7] = target: T2, p38 MAPKα isoform (MAPK14: Invitrogen) (Homo sapiens, UniProt Q16539); assay: p38 MAPKα enzyme inhibition assay (FRET, Z-LYTE, via MAPKAP-K2 activation); assay type: biochemical; conditions: 2 hr pre-incubation, ATP 10.0 μM; read-out: Enzyme Inhibition IC50 p38α
T2 construct: purchased Invitrogen
T2 sequence (Q16539 whole entry, canonical isoform): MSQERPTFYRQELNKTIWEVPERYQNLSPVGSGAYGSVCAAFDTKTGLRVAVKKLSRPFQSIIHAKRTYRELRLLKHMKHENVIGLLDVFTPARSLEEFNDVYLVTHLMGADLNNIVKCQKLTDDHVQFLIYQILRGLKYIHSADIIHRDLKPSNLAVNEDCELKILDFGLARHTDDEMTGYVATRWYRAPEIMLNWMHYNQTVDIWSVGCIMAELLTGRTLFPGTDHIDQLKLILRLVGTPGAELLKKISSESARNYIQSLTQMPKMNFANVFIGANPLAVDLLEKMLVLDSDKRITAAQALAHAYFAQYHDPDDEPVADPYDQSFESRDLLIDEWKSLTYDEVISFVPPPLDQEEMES

Row | Structure (SMILES) | EC50 [1] [nM] | IC50 [2] [nM] | IC50 [3] [nM] | IC50 [4] [nM] | MTT Assay (Viability) 4 h d-U937 [5] [%] | MTT Assay (Viability) 24 h d-U937 [5] [%] | IC50 [6] [nM] | IC50 [7] [nM]
1 | COCC(=O)Nc1cc(Oc2ccc(NC(=O)Nc3cc(C(F)(F)F)nn3-c3ccc(C)cc3)c3ccccc23)ccn1 [Example 29, 2-methoxy-N-(4-(4-(3-(1-p-tolyl-3-(trifluoromethyl)-1H-pyrazol-5-yl)ureido)naphthalen-1-yloxy)pyridin-2-yl)acetamide] | 3300 | 412 | 14500 | > 1690 | 0.8 | −5.7 | 138 | 7.7
2 | COCC(=O)Nc1cc(Oc2ccc(NC(=O)Nc3cc(C(F)(F)C(F)(F)F)nn3-c3ccc(C)cc3)c3ccccc23)ccn1 [Example 30, 2-methoxy-N-(4-(4-(3-(3-(perfluoroethyl)-1-p-tolyl-1H-pyrazol-5-yl)ureido)naphthalen-1-yloxy)pyridin-2-yl)acetamide] | 108 | 1490 | > 15600 | 1910 | −6.3 | −46.1 | 10.2 | 10.1
3 | CNS(=O)(=O)Cc1ccc(-n2nc(C(C)(C)C)cc2NC(=O)Nc2ccc(Oc3ccnc(NC(=O)COC)c3)c3ccccc23)cc1 [Example 31, N-(4-(4-(3-(3-tert-butyl-1-(4-((N-methylsulfamoyl)methyl)phenyl)-1H-pyrazol-5-yl)ureido)naphthalen-1-yloxy)pyridin-2-yl)-2-methoxyacetamide] | 0.8 | > 149 | 77.2 | 19.6 | 1.7 | 50.1 | 1 | 17.1
4 | COCC(=O)Nc1cc(Oc2ccc(NC(=O)Nc3cc(C(C)(C)C)nn3-c3cccc(O)c3)c3ccccc23)ccn1 [Example 32, N-(4-(4-(3-(3-tert-butyl-1-(3-hydroxyphenyl)-1H-pyrazol-5-yl)ureido)naphthalen-1-yloxy)pyridin-2-yl)-2-methoxyacetamide] | 0.1 | 5.5 | 78.4 | 0.7 | 5.8 | 42.2 | 0.7 | 7.7
5 | CNC(=O)Nc1cc(Oc2ccc(NC(=O)Nc3cc(C(C)(C)C)nn3-c3ccc(O)cc3)c3ccccc23)ccn1 [Example 33, 1-(3-tert-butyl-1-(4-hydroxyphenyl)-1H-pyrazol-5-yl)-3-(4-(2-(3-methylureido)pyridin-4-yloxy)naphthalen-1-yl)urea] | 0.7 | 4.4 | 180 | 7 | −1.3 | −24.1 | 1 | 5.3
6 | COCC(=O)Nc1cc(Oc2ccc(NC(=O)Nc3cc(C(C)(C)C)nn3-c3cccc(OC)c3)c3ccccc23)ccn1 [Example 36, N-(4-(4-(3-(3-tert-butyl-1-(3-methoxyphenyl)-1H-pyrazol-5-yl)ureido)naphthalen-1-yloxy)pyridin-2-yl)-2-methoxyacetamide] | 0.1 | 4.9 | 153 | 0.8 | −5.2 | −1.6 | 0.8 | 15.1
7 | CNC(=O)Nc1cc(Oc2ccc(NC(=O)Nc3cc(C(C)(C)C)nn3-c3ccc(OC)cc3)c(C)c2C)ccn1 [Example 37, 1-(4-(4-(3-(3-tert-butyl-1-(4-methoxyphenyl)-1H-pyrazol-5-yl)ureido)-2,3-dimethylphenoxy)pyridin-2-yl)-3-methylurea] | 1.4 | 2.6 | 117 | 18.1 | 5.3 | 42.7 | 1.5 | 29.1
8 | CNC(=O)Nc1cc(Oc2ccc(NC(=O)Nc3cc(C(C)(C)C)nn3-c3ccc(OC)cc3)c3ccccc23)ccn1 [Example 38, 1-(4-(4-(3-(3-tert-butyl-1-(4-methoxyphenyl)-1H-pyrazol-5-yl)ureido)naphthalen-1-yloxy)pyridin-2-yl)-3-methylurea] | 18.4 | 9.8 | 122 | 21.8 | −1.7 | −38.2 | 1.7 | 15.7
9 | CNC(=O)Nc1cc(Oc2ccc(NC(=O)Nc3cc(C(C)(C)C)nn3-c3ccc(OC)nc3)c(C)c2C)ccn1 [Example 39, 1-(4-(4-(3-(3-tert-butyl-1-(6-methoxypyridin-3-yl)-1H-pyrazol-5-yl)ureido)-2,3-dimethylphenoxy)pyridin-2-yl)-3-methylurea] | 1.8 | 2.9 | 81.8 | 23.2 | −12.6 | 21.6 | 1.8 | 30.7
10 | COc1ccc(-n2nc(C(C)(C)C)cc2NC(=O)Nc2ccc(Oc3ccnc(NC(=O)N4CCOCC4)c3)c3ccccc23)cn1 [Example 40, N-(4-(4-(3-(3-tert-butyl-1-(6-methoxypyridin-3-yl)-1H-pyrazol-5-yl)ureido)naphthalen-1-yloxy)pyridin-2-yl)morpholine-4-carboxamide] | 0.9 | 4.8 | 113 | 6.2 | −12.1 | −12.0 | 1.5 | 15.6
11 | COCC(=O)Nc1cc(Oc2ccc(NC(=O)Nc3cc(C(C)(C)C)nn3-c3ccc(OC(F)(F)F)cc3)c3ccccc23)ccn1 [Example 41, N-(4-(4-(3-(3-tert-butyl-1-(4-(trifluoromethoxy)phenyl)-1H-pyrazol-5-yl)ureido)naphthalen-1-yloxy)pyridin-2-yl)-2-methoxyacetamide] | 15.2 | 21.4 | 875 | 10.4 | −26.2 | 1.3 | 7.6 | 26.1
12 | COCC(=O)Nc1cc(Oc2ccc(NC(=O)Nc3cc(C(C)(C)C)nn3-c3ccc(Cl)cc3)c3ccccc23)ccn1 [Example 42, N-(4-(4-(3-(3-tert-butyl-1-(4-chlorophenyl)-1H-pyrazol-5-yl)ureido)naphthalen-1-yloxy)pyridin-2-yl)-2-methoxyacetamide] | 7.2 | 22.2 | 239 | 18.9 | −10.7 | −24.9 | 2.8 | 25
13 | COCC(=O)Nc1cc(Oc2ccc(NC(=O)Nc3cc(C(C)(C)C)nn3-c3ccc(C(=O)OC)cc3)c3ccccc23)ccn1 [Example 43, methyl 4-(3-tert-butyl-5-(3-(4-((2-(2-methoxyacetamido)pyridin-4-yl)oxy)naphthalen-1-yl)ureido)-1H-pyrazol-1-yl)benzoate] | 1.6 | 1.7 | 192 | 8.9 | −12.8 | 0.1 | 2 | 8.3
14 | COCC(=O)Nc1cc(Oc2ccc(NC(=O)Nc3cc(C(C)(C)C)nn3-c3ccc(SC)cc3)c3ccccc23)ccn1 [Example 44, N-(4-(4-(3-(3-tert-butyl-1-(4-(methylthio)phenyl)-1H-pyrazol-5-yl)ureido)naphthalen-1-yloxy)pyridin-2-yl)-2-methoxyacetamide] | 0.1 | 7.5 | 194 | 5.9 | −4.0 | −16.4 | 1.2 | 15.1
